This series in a line: Solubility in an acidic environment. It counts as physicochemical. Particulars: aqueous buffer.

As a reminder, the solubility is the dissolved amount per volume that the medium holds.

For the molecule `C[C@@H]1NC(C)(C)CO[C@@]1(O)c1cccc(Cl)c1` [compound of formula (I), (+)-(2S,3S)-2-(3-chlorophenyl)-3,5,5-trimethyl-2-morpholinol], the solubility is ~150 mg/mL.

(Values after patent US20080008754A1, “Pharmaceutical Compositions Comprising (+)-(2S,3S)-2-(3-Chlorophenyl)-3,5,5-Trimethyl-2-Morpholinol” (SMITHKLINE BEECHAM CORPORATION, priority 2004, published 2008).)
